These results are taken from ChEMBL document CHEMBL5550209, “Hit-to-Lead Optimization of Heterocyclic Carbonyloxycarboximidamides as Selective Antagonists at Human Adenosine A3 Receptor” (J Med Chem, 2024).

A short description of the series: Plasma protein binding in human at 10 uM measured upto 24 hrs by equilibrium dialysis method.

By fraction unbound is commonly meant the share of the substance not bound to proteins or other matrix. The low end stands for extensive binding, the high end for weak binding.

Take `CN[C@H]1CC[C@@H](c2ccc(Cl)c(Cl)c2)c2ccccc21` [SERTRALINE]: the free fraction (fraction unbound) at 24 h, 10 µM worked out at 0.01.
